Where two headings read alike, the source gives them in different places.
Key:
Format in all cases: cell-based, human
[1] = system: 15 non small cell lung cancer lines representing various EGFR and KRAS mutations; assay: Dose response studies against 15 NSCLC lines (alamar blue); conditions: 12 point doubling dilution 10 uM to 5 nM, alamar blue
Experimental: Dose response studies against 34 compounds from the pyridazinone and phenylfuran-carboxamide class were conducted. […] In addition, Tarceva was included in these dose response studies.
The dose response studies were done with the following standard procedure. First, the cells were counted and dispensed at 250 cells/well into 384-well microplates with compound. The cells were incubated for 48 hours at 37 C to complete treatment, and then alamar blue was added for an additional 48 hours. Finally, alamar blue reduction was measured and the data was loaded into ORIS, our data screening acquisition platform.

H2030 = assay: Non Small Cell Lung Cancer Proliferation Assay (Alamar Blue); conditions: dose response 10 μM to 5 nM
Experimental: (§1) These cells have a doubling time of 1-2 days. All cell types are adherent and grow in colonies. The cells should be kept at a density between 50,000 cells/mL-500,000 cells/mL to provide for optimum growth and adequate nutrition. The cell line should be maintained at 37° C. in a humidified atmosphere with 5% CO2 in a sterile cell culture incubator.
(§2) To perform the assay, the Non Small Cell Lung Cancer lines are diluted in media and plated into 384 well microplates at a final density of 250 cells in 45 μL.
(§3) High Controls for this assay are made by treating Non Small Cell Lung Cancer cells with 5 ul of 10% DMSO. [Final concentration in this assay is 1% DMSO].
(§4) Important Note: All compounds for testing in this assay should be done at the final concentration of 1% DMSO.
(§5) After addition, the cells are placed in cell culture incubator at 37° C. for 48 hours for complete treatment.
(§6) After drug treatment, cytotoxicity is measured by Alamar Blue reduction.
(§7) The cells are incubated for 48 hours at 37° C. to complete the Alamar Blue reduction.
(§8) The final step in the assay is to measure the amount of Alamar Blue reduction. […] The Alamar Blue fluorescence is measured at an excitation of 530 nm and emission of 590 nm.
(§9) For the NSCLC project, the cell based assay was screened against a small molecule library of approximately 200,000 compounds. The compound library is stored in our automated robotic freezer (Biophile) at −20° C. in 100% DMSO. Compound freeze and thaw cycles are kept to a minimum. […] This assay was performed on a fully automated linear track robotic platform (CRS F3 Robot System, Thermo Electron Corp., Ontario, Canada) utilizing several integrated peripherals for plate handling, liquid dispensing, and readout detection. […] The microplates are then placed at 37° C. for 48 hours to complete treatment of cells with compounds. Next, 5 ul of alamar blue was added using a liquid dispenser (FlexDrop Precision Dispenser, Perkin Elmer, Mass., USA) and incubated for 48 hours at 37° C. The alamar blue prompt fluorescence was measured on Victor V (Victor^3 V, Perkin Elmer, Mass., USA) and output data files were loaded into ORIS (Oncology Research Informatics System, MSKCC, NY, USA), a screening data acquisition and analysis platform.

H3255 = assay: as above; conditions: dose response 10 μM to 5 nM
Experimental: as §1, §2, §3, §4, §5, §6, §7, §8, §9

[2] = HPL1D (SV40-immortalized human lung epithelian cells, EGFR WT, KRAS WT), read-out: IC50 HPL1D
[3] = Homo sapiens, H23 (EGFR WT, KRAS G12C), read-out: IC50 H23
[4] = Homo sapiens, PC9 (EGFR DclE746-A750, KRAS WT), read-out: IC50 PC9

SMILES	IC50 [1, 3]	IC50 [1, 4]	also measured
O=c1c(Br)c(Br)cnn1-c1ccccc1 [compound 257015]			IC50 [1, 2]: 0.3 µM
Cc1ccc(-n2ncc(Cl)c(Cl)c2=O)cc1 [compound 257016]	0.32 µM		
CCc1cccc(-n2ncc(Cl)c(Cl)c2=O)c1 [compound 267062]		1.51 µM	
CCCCc1cccc(-n2ncc(Cl)c(Cl)c2=O)c1 [compound 267063]			IC50 ([1]; H2444 (EGFR WT, KRAS G12V), read-out: IC50 H2444): 5.28 µM
Cc1cc(-n2ncc(Cl)c(Cl)c2=O)ccc1Br [compound 267064]		> 10 µM	
Cc1cc(-n2ncc(Cl)c(Cl)c2=O)ccc1Cl [compound 267065]		> 10 µM	
Cc1nc2cc(-n3ncc(Cl)c(Cl)c3=O)ccc2s1 [compound 267067]		> 10 µM	
Cc1ccc(-n2ncc(Cl)c(Cl)c2=O)cc1Cl [compound 267070]	> 10 µM	> 10 µM	IC50 [1, 2]: > 10 µM
O=c1c(Br)c(Br)cnn1-c1cccc(C(F)(F)F)c1 [compound 267072]			IC50 (H2030): 1.42 µM
O=c1c(Br)c(Br)cnn1-c1ccccn1 [compound 267073]	0.07 µM	0.42 µM	
O=c1c(Cl)c(Cl)cnn1-c1ccc(Cl)cc1Cl [compound 267077]		> 10 µM	IC50 (H3255): 1.11 µM
O=c1c(Cl)c(Cl)cnn1-c1ccccn1 [compound 267090]	0.08 µM		IC50 ([1]; Homo sapiens, NCI-H820, H820 (EGFR T790M/DelE746-A750, KRAS WT), read-out: IC50 H820): 0.41 µM
